ChEMBL document CHEMBL4613241, “Disulfide Cleavage in a Dimeric Epipolythiodioxopiperazine Natural Product Diminishes Its Apoptosis-Inducing Effect but Enhances Autophagy in Tumor Cells” (2020)
Calls of active or inactive are those of the source. The rule behind the calls is not given here.

Legend:
[1] = system: HepG2; experiment: Induction of apoptosis in human HepG2 cells assessed as increase in cleaved PARP level by measuring ratio of cleaved PARP to total PARP level at 2 uM after 12 hrs by Western blot analysis; assay type: functional
[2] = system: HCT-116; experiment: Inhibition of colony formation in human HCT116 at 0.1 uM after 2 weeks by trypan blue staining based assay relative to control; assay type: functional; conditions: HCT-116, 336 h
[3] = system: HepG2; experiment: Induction of apoptosis in human HepG2 cells assessed as increase in cleaved PARP level by measuring ratio of cleaved PARP to total PARP level at 1 uM after 12 hrs by Western blot analysis; assay type: functional
[4] = system: HepG2; experiment: Inhibition of colony formation in human HepG2 at 0.1 uM after 2 weeks by trypan blue staining based assay relative to control; assay type: functional; conditions: HepG2, 336 h
[5] = system: HepG2; experiment: Induction of autophagy in human HepG2 cells assessed as inhibition of lactate generation at 0.5 uM up to 4 hrs; assay type: functional, cell-based
[6] = system: HCT-116; experiment: Inhibition of colony formation in human HCT116 at 1 to 5 uM after 2 weeks by trypan blue staining based assay; assay type: functional, cell-based
[7] = system: ACHN; experiment: Antiproliferative activity against human ACHN cells assessed as reduction in cell viability at 5 uM measured up to 72 hrs by MTS assay; assay type: functional, cell-based
[8] = system: HepG2; experiment: Induction of apoptosis in human HepG2 cells assessed as increase in cleaved PARP1 level at 5 uM after 12 hrs by Western blot analysis; assay type: functional, cell-based
[9] = system: T-24; experiment: Induction of apoptosis in human T24 cells assessed as increase in cleaved PARP1 level at 5 uM after 12 hrs by Western blot analysis; assay type: functional, cell-based
[10] = system: HepG2; experiment: Induction of autophagy in human HepG2 cells assessed as inhibition of lactate generation at 5 uM up to 4 hrs; assay type: functional, cell-based
[11] = system: HepG2; experiment: Induction of autophagy in human HepG2 cells assessed as ratio of LC3-2 level to total Erk1/2 protein level at 0.5 uM after 4 hrs in presence of CC by Western blot analysis (reference value: 1.3); assay type: functional

| Structure (SMILES) | Ratio [1] | inhibition at 0.1 µM [2] | Ratio [3] | inhibition at 0.1 µM [4] | inhibition [5] | inhibition [6] | Activity [7] | Activity [8] | Activity [9] | inhibition [10] | Ratio [11] |
| --- | --- | --- | --- | --- | --- | --- | --- | --- | --- | --- | --- |
| CC[C@@]12SS[C@]3(C(=O)N1C)[C@@H](O)C1(C45c6ccccc6N[C@@H]4N4C(=O)[C@]6([C@@H](C)O)SS[C@]4(C(=O)N6C)[C@H]5O)c4ccccc4N[C@@H]1N3C2=O (stereo partly specified) | 1.7 | 100% | 1 | 100% | Active |  |  |  |  |  |  |
| CCC1(SC)C(=O)N2[C@H]3N(C)c4ccccc4C3(C34c5ccccc5N(C)[C@@H]3N3C(=O)C(SC)([C@@H](C)O)N(C)C(=O)C3(SC)[C@H]4O)[C@H](O)C2(SC)C(=O)N1C (stereo partly specified) |  |  |  |  |  | Active | Active | inactive | inactive | Active | 0.7 |
